Article PMC6646405, “A quantitative, high-throughput method identifies protein–glycan interactions via mass spectrometry” (Communications Biology, 2019)
Values joined by “and” are separate entries in the source; they are usually repeats but may differ in a detail not shown here. Equal values may be shown once.

Tests used:
[1] = target: streptavidin homotetramer (S4) (Streptomyces avidinii, UniProt P22629); assay: CUPRA library screening against negative control streptavidin; assay type: binding; parameters: key: ratio change on GBP addition; ~1.0 = no binding (negative control); settings: depletion index, 50 μM streptavidin
streptavidin homotetramer (S4), sequence (P22629 25-183): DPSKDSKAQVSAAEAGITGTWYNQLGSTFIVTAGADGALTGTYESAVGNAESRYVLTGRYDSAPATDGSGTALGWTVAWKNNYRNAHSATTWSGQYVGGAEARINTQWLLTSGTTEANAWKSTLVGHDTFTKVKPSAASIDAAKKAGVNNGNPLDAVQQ

[2] = target: Cholera toxin B subunit homopentamer (CTB5) (Vibrio cholerae serotype O1, UniProt P01556); assay type: binding
Cholera toxin B subunit homopentamer (CTB5), sequence (P01556 22-124 limits assumed): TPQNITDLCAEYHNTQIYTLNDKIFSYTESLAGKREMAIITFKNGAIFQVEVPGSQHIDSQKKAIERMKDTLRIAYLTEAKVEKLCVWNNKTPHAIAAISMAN

[3] = tested on: family 51 carbohydrate binding module (CBM51); assay: CUPRA library screening and affinity, CBM51; settings: 25uM CBM51; mean of 4 DIi values, FigS3a
Experimental: (§1) Unless otherwise noted, the measurements were performed at 25 °C. […] We identified specific ligands from the depletion index (DIi, Eq. 1) – the change in the fractional abundance (Fi, Eq. 2) ratio of ligand i-bound and free ^UniPproxy ions upon addition of GBP. Prior to calculating Fi, we treated each mass spectrum with the Sliding Window Adducts Removal Method (SWARM)[18] to remove contributions to the abundance of ^UniPproxy -OS^mod complex ions from adducts, formed by the ESI process, of neighbouring complex ions (Supplementary Fig. 2). Shown in Fig. 2a is a summary of the DIi measured by CUPRA screening of the 66-component library against S4 (50 μM). As expected, the average DIi for this negative control is close to 1.0 (0.99 ± 0.03). In contrast, CUPRA screening against the positive controls produced decreases in DIi for one or more of the library components. […] Application of CUPRA to human CD22, part of an important class of Neu5Ac-binding GBPs implicated in both innate and adaptive immunity, correctly identified HMO08 as a ligand (Supplementary Fig. 4a). CUPRA screening of MAA at high concentration (50 μM) identified HMO03 and GA06 as ligands. […]
(§2) Using SWARM-treated mass spectra, DIi was calculated for each ligand from the ratio of the fractional abundances (Fi) of ligand (i)-bound and free ^UniPproxy ions in the presence (+GBP) and absence (-GBP) of GBP, Eqs. […]

[4] = target: Sambucus nigra lectin (SNA) (Sambucus nigra, UniProt Q41358); assay type: binding
Sambucus nigra lectin (SNA), sequence (Q41358 309-570 limits assumed): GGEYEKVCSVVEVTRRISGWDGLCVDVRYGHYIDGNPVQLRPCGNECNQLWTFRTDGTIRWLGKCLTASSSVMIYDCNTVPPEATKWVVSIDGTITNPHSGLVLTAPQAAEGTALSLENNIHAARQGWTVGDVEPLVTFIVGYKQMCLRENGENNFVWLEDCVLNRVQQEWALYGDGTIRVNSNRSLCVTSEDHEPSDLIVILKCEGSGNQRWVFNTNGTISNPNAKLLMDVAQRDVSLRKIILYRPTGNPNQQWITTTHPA
Sambucus nigra lectin (SNA), sequence (Q41358 29-289 partner limits assumed): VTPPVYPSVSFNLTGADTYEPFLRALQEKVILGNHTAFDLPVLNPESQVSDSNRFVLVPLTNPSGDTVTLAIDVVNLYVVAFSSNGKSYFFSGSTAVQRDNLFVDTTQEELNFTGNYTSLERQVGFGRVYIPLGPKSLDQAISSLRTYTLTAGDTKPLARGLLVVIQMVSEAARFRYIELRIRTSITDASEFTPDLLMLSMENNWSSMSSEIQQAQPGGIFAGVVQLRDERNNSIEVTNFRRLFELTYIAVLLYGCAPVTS

[5] = tested on: Maackia amurensis lectins (MAA); assay: CUPRA library screening and affinity, MAA; assay type: binding; settings: 50uM MAA; mean of 4 DIi values, FigS3c
Experimental: as §1, §2

human siglec-2 (CD22) = target: T1, human siglec-2 (CD22) (Homo sapiens, UniProt P20273); assay: CUPRA library screening and affinity, siglec-2; assay type: binding; settings: for average DI: mean of 4 DIi values
T1 construct: Residues 1–332 of human Siglec-2 (MW 140 kDa, purity > 95%) were cloned in frame with human IgG1 Fc and a C-terminal His6; made in house
T1 sequence (P20273 20-332): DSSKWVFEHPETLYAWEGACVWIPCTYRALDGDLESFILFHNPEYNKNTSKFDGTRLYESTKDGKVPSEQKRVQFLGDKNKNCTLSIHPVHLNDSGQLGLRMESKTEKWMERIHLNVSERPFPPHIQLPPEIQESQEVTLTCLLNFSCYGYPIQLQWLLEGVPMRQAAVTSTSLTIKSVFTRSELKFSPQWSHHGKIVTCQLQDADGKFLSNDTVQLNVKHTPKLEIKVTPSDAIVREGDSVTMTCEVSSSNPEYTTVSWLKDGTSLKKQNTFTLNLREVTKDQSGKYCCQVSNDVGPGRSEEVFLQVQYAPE

[6] = target: human carbonic anhydrase type 1 (Homo sapiens, UniProt P00915); assay: Direct ESI-MS affinity of OSmod for the universal proxy protein (UniPproxy)
human carbonic anhydrase type 1, sequence (P00915 whole entry): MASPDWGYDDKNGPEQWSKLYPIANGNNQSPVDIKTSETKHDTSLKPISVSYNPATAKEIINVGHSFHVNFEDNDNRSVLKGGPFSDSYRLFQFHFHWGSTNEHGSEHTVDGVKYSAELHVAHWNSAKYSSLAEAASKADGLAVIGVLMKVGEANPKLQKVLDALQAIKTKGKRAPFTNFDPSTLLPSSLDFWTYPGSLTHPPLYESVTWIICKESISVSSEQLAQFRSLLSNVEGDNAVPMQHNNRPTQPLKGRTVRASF

CC(=O)N(CCOCCOCCNC(=O)C(Cc1ccccc1)NC(=O)C(Cc1ccccc1)NC(=O)CCCC(=O)NCCc1ccc(S(N)(=O)=O)cc1)C1OC(CO)C(OC2OC(CO)C(O)C(O)C2O)C(O)C1O (stereo not drawn) [HMO01, Galβ1-4Glc-CL]
average DI ([1]; mean of 4): 0.9888
DIi(50uM S4) ([1]; measurement 1 of 4): 0.9878
DIi(50uM S4) ([1]; measurement 2 of 4): 0.986
DIi(50uM S4) ([1]; measurement 3 of 4): 0.9917
DIi(50uM S4) ([1]; measurement 4 of 4): 0.9898
DIi(2uM CTB5) [2]: 0.9935 and 0.9881 and 0.9983 and 0.9929
DIi(10uM CTB5) [2]: 0.9693 and 0.964 and 0.9533 and 0.9481
DIi(10uM CTB5 at 0C) [2]: 1.005 and 0.995 and 1.012 and 1.002
average DI [2]: 0.9932 and 0.9587 and 1.004
average DI [3]: 1.026
DIi(5uM SNA) [4]: 1.0284 and 1.03 and 1.033 and 1.035
average DI [4]: 1.032
average DI [5]: 1.065
average DI (human siglec-2 (CD22); 25uM CD22): 1.013
DIi(25uM CD22) (human siglec-2 (CD22); 25uM CD22, replicate column 1 of 4): 1.023
DIi(25uM CD22) (human siglec-2 (CD22); 25uM CD22, replicate column 2 of 4): 1.029
DIi(25uM CD22) (human siglec-2 (CD22); 25uM CD22, replicate column 3 of 4): 0.9963
DIi(25uM CD22) (human siglec-2 (CD22); 25uM CD22, replicate column 4 of 4): 1.002
average DI (human siglec-2 (CD22); 25uM CD22 at 0C): 1.021
DIi(25uM CD22 at 0C) (human siglec-2 (CD22); 25uM CD22 at 0C, replicate column 1 of 4): 1.003
DIi(25uM CD22 at 0C) (human siglec-2 (CD22); 25uM CD22 at 0C, replicate column 2 of 4): 1.007
DIi(25uM CD22 at 0C) (human siglec-2 (CD22); 25uM CD22 at 0C, replicate column 3 of 4): 1.036
DIi(25uM CD22 at 0C) (human siglec-2 (CD22); 25uM CD22 at 0C, replicate column 4 of 4): 1.04
Kd [6]: 5.1 ± 1.4 µM
